Laboratory results as given in paper PMC12150326 (The Journal of Organic Chemistry, 2025).
Like-named read-outs stand apart in the source and are kept apart here.

What was measured:
[1] = system: colchicine site of bovine brain tubulin; assay type: binding; conditions: for Kd: tubulin binding constant, 25 °C
Description: Inhibition of this fluorescence increase was measured and converted to K d for the test compound as described.

bovine brain tubulin = test: Tubulin polymerization inhibition; assay type: biochemical; conditions: 10 μM tubulin; for Polymerization Inhibition (%) 3.3 μM: 3.3 μM compound; for Polymerization Inhibition (%) 33 μM: 33 μM compound
Description: Inhibition of tubulin polymerization was determined as described previously. In brief, 10 μM bovine brain tubulin (PurSolutions, LLC (puresoluble.com)) was incubated under conditions strongly promoting polymerization of tubulin (1 M NaGlutamate, 0.1 M Mes (Morpholinoethanesulfonic acid), 1 mM MgCl2, 0.5 mM GTP, pH 6.9), in the absence or presence of 3.3 or 33 μM test compound, incubated for 30 min at 37 °C, then centrifuged at 100,000g for 8 min, and the top 3/4 of the supernatant removed. Protein concentration was measured, and polymerization was determined as pelletable protein lost from the supernatant.

CAKI-1 = assay type: cell-based, human; conditions: for GI50: Homo sapiens
Procedure, shortened: (§1)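 First, compounds went into the NCI-60 cell panel. Next, they were dosed at 0.01, 0.1, 1, 10 and 100 μM. Finally, TGI levels fed a COMPARE analysis against prior tubulin-inhibitor data.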

SW-620 = assay type: cell-based, human; conditions: for GI50: Homo sapiens
Procedure, shortened: as §1

KM12 = assay type: cell-based, human; conditions: for Log10GI50 / Log10LC50 / Log10TGI: KM12
Procedure, shortened: (§2)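 The compounds are screened against the NCI-60 lines at 100, 10, 1, 0.1 and 0.01 μM. Growth response is expressed as TGI, and COMPARE correlates the TGI pattern with that of tubulin inhibitors.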

SF-268 = assay type: cell-based, human
Procedure, shortened: as §2

NCI 60 cell lines = assay type: cell-based, human; conditions: for selectivity range: NCI-60, GI50 level; for Log10 Range at TGI: NCI-60 cell line selectivity; for GI50: NCI-60 mean; for Mean TGI: NCI-60 mean total growth inhibition; for Delta Log10GI50 / Delta Log10LC50 / Delta Log10TGI / Range Log10GI50 / Range Log10LC50 / Range Log10TGI: mean graph; for _MID Log10GI50 / _MID Log10LC50 / _MID Log10TGI: mean graph midpoint; for cytotoxicity at the highest concentration tested: 100 μM
Procedure, shortened: as §1

DU-145 = assay type: cell-based, human
Procedure, shortened: as §2

COLO 205 = assay type: cell-based, human; conditions: for GI50: Homo sapiens
Procedure, shortened: as §1

## COc1cc(C)c(-c2ccc(OC)c(=O)cc2C)c(OC)c1OC (single isomer, unassigned) [(aR)-6]
[1]
  binding constant fold less potent than 3: 5–30 fold
[1]; read-out: Kd
  Kd: 95 µM
Bovine brain tubulin
  Polymerization Inhibition (%) 3.3 μM: 0%
  Polymerization Inhibition (%) 33 μM: 100%
CAKI-1
  Log10GI50: -6.03 Molar
  Log10LC50: > -4.00 Molar
  Log10TGI: > -4.00 Molar
  GI50: 0.93 µM
CAKI-1; listed as (aR)-DM-MTC
  Log10GI50: -6.03 Molar
SW-620
  Log10GI50: -5.91 Molar
  Log10LC50: > -4.00 Molar
  Log10TGI: > -4.00 Molar
  GI50: 1.23 µM
SW-620; listed as (aR)-DM-MTC
  Log10GI50: -5.91 Molar
KM12; Homo sapiens, KM12 (printed KM29)
  GI50: 1.62 µM
KM12
  Log10GI50: -5.79 Molar
  Log10LC50: > -4.00 Molar
  Log10TGI: > -4.00 Molar
KM12; listed as (aR)-DM-MTC
  Log10GI50: -5.79 Molar
SF-268
  Log10GI50: -5.26 Molar
  Log10LC50: > -4.00 Molar
  Log10TGI: > -4.00 Molar
SF-268; Homo sapiens
  GI50: 5.5 µM
SF-268; listed as (aR)-DM-MTC
  Log10GI50: -5.26 Molar
NCI 60 cell lines
  fold less potent than colchicine, growth inhibition: 10 to 50 fold
  selectivity range: 2.39 log units
  GI50: 2.4 µM
  Mean TGI: 63 µM
  Delta Log10GI50: 0.95
  Delta Log10LC50: 0.73
  Delta Log10TGI: 1.93
  Range Log10GI50: 2.39
  Range Log10LC50: 0.74
  Range Log10TGI: 2.13
  _MID Log10GI50: -5.62 Molar
  _MID Log10LC50: -4.01 Molar
  _MID Log10TGI: -4.2 Molar
NCI 60 cell lines; listed as (aR)-DM-MTC (6)
  Log10 Range at TGI: 2.13
DU-145
  Log10GI50: -5.45 Molar
  Log10LC50: > -4.00 Molar
  Log10TGI: > -4.00 Molar
DU-145; Homo sapiens
  GI50: 3.55 µM
DU-145; listed as (aR)-DM-MTC
  Log10GI50: -5.45 Molar
COLO 205
  Log10GI50: -5.76 Molar
  Log10LC50: -4.74 Molar
  Log10TGI: -5.35 Molar
  GI50: 1.74 µM
COLO 205; listed as (aR)-DM-MTC
  Log10GI50: -5.76 Molar

## COc1cc(C)c(-c2ccc(=O)c(OC)cc2C)c(OC)c1OC (single isomer, unassigned) [(aR)-iso-6]
[1]
  Kd: nb
Bovine brain tubulin
  Polymerization Inhibition (%) 3.3 μM: 0%
  Polymerization Inhibition (%) 33 μM: 0%
CAKI-1
  Log10GI50: > -4.00 Molar
  Log10LC50: > -4.00 Molar
  Log10TGI: > -4.00 Molar
SW-620
  Log10GI50: > -4.00 Molar
  Log10LC50: > -4.00 Molar
  Log10TGI: > -4.00 Molar
NCI 60 cell lines
  cytotoxicity at the highest concentration tested: not cytotoxic
  Log10 Range at TGI: 0
  GI50: > 100 µM
  Mean TGI: > 100 µM
  Delta Log10LC50: 0
  Delta Log10TGI: 0
  _MID Log10GI50: -4.01 Molar
  _MID Log10LC50: -4.0 Molar
  _MID Log10TGI: -4.0 Molar
COLO 205
  Log10GI50: > -4.00 Molar
  Log10LC50: > -4.00 Molar
  Log10TGI: > -4.00 Molar

## COc1cc(C)c(-c2ccc(OC)c(=O)cc2C)c(OC)c1OC (single isomer, unassigned) [(aS)-6]
[1]; read-out: Kd
  Kd: 230 µM
Bovine brain tubulin
  Polymerization Inhibition (%) 3.3 μM: 0%
  Polymerization Inhibition (%) 33 μM: 0%
CAKI-1
  Log10GI50: > -4.00 Molar
  Log10LC50: > -4.00 Molar
  Log10TGI: > -4.00 Molar
SW-620
  Log10GI50: > -4.00 Molar
  Log10LC50: > -4.00 Molar
  Log10TGI: > -4.00 Molar
KM12
  Log10GI50: > -4.00 Molar
  Log10LC50: > -4.00 Molar
  Log10TGI: > -4.00 Molar
SF-268
  Log10GI50: > -4.00 Molar
  Log10LC50: > -4.00 Molar
  Log10TGI: > -4.00 Molar
NCI 60 cell lines
  cytotoxicity at the highest concentration tested: not cytotoxic
  Delta Log10GI50: 0.63
  Delta Log10LC50: 0
  Delta Log10TGI: 0
  Range Log10GI50: 0.65
  Range Log10LC50: 0.0
  Range Log10TGI: 0.0
  _MID Log10GI50: -4.02 Molar
  _MID Log10LC50: -4.0 Molar
  _MID Log10TGI: -4.0 Molar
NCI 60 cell lines; listed as (aS)-DM-MTC (6)
  Log10 Range at TGI: 0
  Mean TGI: > 100 µM
  GI50: > 100 µM
DU-145
  Log10GI50: > -4.00 Molar
  Log10LC50: > -4.00 Molar
  Log10TGI: > -4.00 Molar
COLO 205
  Log10GI50: > -4.00 Molar
  Log10LC50: > -4.00 Molar
  Log10TGI: > -4.00 Molar

## COc1cc(C)c(-c2ccc(=O)c(OC)cc2C)c(OC)c1OC (single isomer, unassigned) [(aS)-iso-6]
[1]
  Kd: nb
Bovine brain tubulin
  Polymerization Inhibition (%) 3.3 μM: 0%
  Polymerization Inhibition (%) 33 μM: 0%
CAKI-1
  Log10GI50: -4.71 Molar
  Log10LC50: > -4.00 Molar
  Log10TGI: > -4.00 Molar
  GI50: 19.5 µM
CAKI-1; […]
  Log10GI50: -4.71 Molar
SW-620
  Log10GI50: -4.55 Molar
  Log10LC50: > -4.00 Molar
  Log10TGI: > -4.00 Molar
  GI50: 30.9 µM
SW-620; […]
  Log10GI50: -4.51 Molar
NCI 60 cell lines
  fold less potent than (aR)-6 in NCI-60 screen: approximately 10 fold
  selectivity range: 1.46 log units
  Log10 Range at TGI: 0.81
  GI50: 27 µM
  Mean TGI: 91 µM
  Delta Log10GI50: 0.89
  Delta Log10LC50: 0
  Delta Log10TGI: 0.77
  Range Log10GI50: 1.46
  Range Log10LC50: 0.0
  Range Log10TGI: 0.81
  _MID Log10GI50: -4.57 Molar
  _MID Log10LC50: -4.0 Molar
  _MID Log10TGI: -4.04 Molar
COLO 205
  Log10GI50: -4.66 Molar
  Log10LC50: > -4.00 Molar
  Log10TGI: -4.23 Molar
  GI50: 21.9 µM
COLO 205; […]
  Log10GI50: -4.66 Molar
